Assay results reported in ChEMBL document CHEMBL1212769, “Multiple-dose safety, tolerability, and pharmacokinetics of oral nemonoxacin (TG-873870) in healthy volunteers” (Antimicrob Agents Chemother, 2010).

Columns and labels:
[1] = Terminal half life in human at 1000 […], po measured on day 10; type: ADME, organism-based; parameters: route oral; conditions: in vivo, read-out: beta t1/2 (converted)
[2] = Clearance in human assessed as compound recovered in urine at 500 mg/kg, po measured on day 1 up to 24 hrs post dose; type: ADME, organism-based; parameters: dose 500 mg/kg, route oral; conditions: read-out: amount in urine
[3] = AUC (0 to last) in human at 75 mg/kg, po measured on day 1; type: ADME, organism-based; parameters: time 0 - last, dose 75 mg/kg, route oral; conditions: plasma
Homo sapiens [4] = test: Toxicity in human assessed as occurrence of pruritus at 250 […], po administered as single dose; type: organism-based; parameters: route oral; conditions: in vivo
Homo sapiens [5] = test: Toxicity in human assessed as occurrence of rashes at 75 […], po administered as single dose; type: organism-based; parameters: route oral; conditions: in vivo
Homo sapiens [6] = test: Toxicity in human assessed as occurrence of dermatitis at 250 […], po administered as single dose; type: organism-based; parameters: route oral; conditions: in vivo
[7] = Clearance in human assessed as compound recovered in urine at 500 mg/kg, po measured on day 16 up to 24 hrs post dose; type: ADME, organism-based; parameters: dose 500 mg/kg, route oral; conditions: read-out: amount in urine
[8] = AUC (0 to 24 hrs) in human at 250 mg/kg, po measured on day 1; type: ADME, organism-based; parameters: time < 24 hr, dose 250 mg/kg, route oral; conditions: plasma
[9] = Cmax in human at 750 […], po measured on day 1; type: ADME, organism-based; parameters: dose 750 mg/kg, route oral; conditions: in vivo
[10] = Renal clearance in human at 75 […], po measured on day 10; type: ADME, organism-based, Kidney; parameters: route oral; conditions: in vivo, read-out: CL_renal (converted)
[11] = Cmax in human at 1000 […], po measured on day 10; type: ADME, organism-based; parameters: dose 1000 mg/kg, route oral; conditions: in vivo
Homo sapiens [12] = test: Toxicity in human assessed as occurrence of abdominal pain at 750 […], po administered as single dose; type: organism-based, Abdomen; parameters: route oral; conditions: in vivo
[13] = Oral clearance in human at 750 […] measured on day 1; type: ADME, organism-based; conditions: in vivo
[14] = AUC (0 to 24 hrs) in human at 1000 […], po measured on day 1; type: ADME, organism-based; parameters: time < 24 hr, dose 1000 mg/kg, route oral; conditions: plasma
[15] = Oral clearance in human at 75 mg/kg measured on day 10; type: ADME, organism-based; parameters: dose 75 mg/kg; conditions: in vivo
[16] = Oral clearance in human at 250 mg/kg measured on day 10; type: ADME, organism-based; parameters: dose 250 mg/kg; conditions: in vivo
[17] = AUC (0 to last) in human at 750 mg/kg, po measured on day 10; type: ADME, organism-based; parameters: time 0 - last, dose 750 mg/kg, route oral; conditions: plasma
Homo sapiens [18] = test: Toxicity in human assessed as occurrence of dermatitis at 500 […], po administered as single dose; type: organism-based; parameters: route oral; conditions: in vivo
[19] = Oral clearance in human at 1000 […] measured on day 1; type: ADME, organism-based; parameters: dose 1000 mg/kg; conditions: in vivo
[20] = AUC (0 to 24 hrs) in human at 75 mg/kg, po measured on day 10; type: ADME, organism-based; parameters: time < 24 hr, dose 75 mg/kg, route oral; conditions: plasma
Homo sapiens [21] = test: Toxicity in human assessed as occurrence of abdominal pain at 500 […], po administered as single dose; type: organism-based, Abdomen; parameters: route oral; conditions: in vivo
[22] = Renal clearance in human at 500 […], po measured on day 10; type: ADME, organism-based, Kidney; parameters: route oral; conditions: in vivo, read-out: CL_renal (converted)
[23] = Oral clearance in human at 75 mg/kg measured on day 1; type: ADME, organism-based; parameters: dose 75 mg/kg; conditions: in vivo
[24] = Tmax in human at 250 […], po measured on day 1; type: ADME, organism-based; parameters: route oral; conditions: in vivo
[25] = Terminal half life in human at 750 […], po measured on day 10; type: ADME, organism-based; parameters: route oral; conditions: in vivo, read-out: beta t1/2 (converted)
Homo sapiens [26] = test: Toxicity in human assessed as occurrence of pollakiuria at 250 […], po administered as single dose; type: organism-based; parameters: route oral; conditions: in vivo
[27] = Cmax in human at 750 […], po measured on day 10; type: ADME, organism-based; parameters: dose 750 mg/kg, route oral; conditions: in vivo
[28] = Cmax in human at 250 […], po measured on day 1; type: ADME, organism-based; parameters: dose 250 mg/kg, route oral; conditions: in vivo
[29] = Cmax in human at 75 […], po measured on day 1; type: ADME, organism-based; parameters: dose 75 mg/kg, route oral; conditions: in vivo
[30] = Tmax in human at 750 […], po measured on day 1; type: ADME, organism-based; parameters: route oral; conditions: in vivo
[31] = Clearance in human assessed as compound recovered in urine at 500 mg/kg, po measured on day 10 up to 24 hrs post dose; type: ADME, organism-based; parameters: dose 500 mg/kg, route oral; conditions: read-out: amount in urine
Homo sapiens [32] = test: Toxicity in human assessed as occurrence of pollakiuria at 75 […], po administered as single dose; type: organism-based; parameters: route oral; conditions: in vivo
Homo sapiens [33] = test: Toxicity in human assessed as occurrence of diarrhea at 250 […], po administered as single dose; type: organism-based; parameters: route oral; conditions: in vivo
[34] = AUC (0 to 24 hrs) in human at 500 mg/kg, po measured on day 16; type: ADME, organism-based; parameters: time < 24 hr, dose 500 mg/kg, route oral; conditions: plasma
[35] = Tmax in human at 1000 […], po measured on day 10; type: ADME, organism-based; parameters: route oral; conditions: in vivo
[36] = Renal clearance in human at […], po measured on day 10; type: ADME, organism-based, Kidney; conditions: in vivo, read-out: CL_renal (converted)
[37] = AUC (0 to last) in human at 750 mg/kg, po measured on day 1; type: ADME, organism-based; parameters: dose 750 mg/kg, route oral, time 0 - last; conditions: plasma
[38] = AUC (0 to 24 hrs) in human at 750 mg/kg, po measured on day 10; type: ADME, organism-based; parameters: time < 24 hr, dose 750 mg/kg, route oral; conditions: plasma
[39] = Cmax in human at 500 […], po measured on day 16; type: ADME, organism-based; parameters: dose 500 mg/kg, route oral; conditions: in vivo
Homo sapiens [40] = test: Toxicity in human assessed as occurrence of somnolence at 750 […], po administered as single dose; type: organism-based; parameters: route oral; conditions: in vivo
Homo sapiens [41] = test: Toxicity in human assessed as occurrence of abdominal pain at 250 […], po administered as single dose; type: organism-based, Abdomen; parameters: route oral; conditions: in vivo
[42] = Renal clearance in human at 1000 […], po measured on day 10; type: ADME, organism-based, Kidney; parameters: route oral; conditions: in vivo, read-out: CL_renal (converted)
Homo sapiens [43] = test: Toxicity in human assessed as occurrence of diarrhea at […], po administered as single dose; type: organism-based; parameters: route oral; dose or concentration left out as unconfirmed; conditions: in vivo
[44] = Clearance in human assessed as compound recovered in urine at 1000mg/kg, po measured on day 10 up to 24 hrs post dose; type: ADME, organism-based; conditions: read-out: amount in urine
[45] = Terminal half life in human at 250 […], po measured on day 10; type: ADME, organism-based; parameters: route oral; conditions: in vivo, read-out: beta t1/2 (converted)
[46] = Clearance in human assessed as compound recovered in urine at 75 mg/kg, po measured on day 10 up to 24 hrs post dose; type: ADME, organism-based; parameters: dose 75 mg/kg, route oral; conditions: read-out: amount in urine
[47] = AUC (0 to last) in human at 500 mg/kg, po measured on day 10; type: ADME, organism-based; parameters: time 0 - last, dose 500 mg/kg, route oral; conditions: plasma
[48] = AUC(0 to last) in human at 500 mg/kg, po measured on day 1; type: ADME, organism-based; parameters: time 0 - last, dose 500 mg/kg, route oral; conditions: plasma
[49] = Clearance in human assessed as compound recovered in urine at 75 mg/kg, po measured on day 1 up to 24 hrs post dose; type: ADME, organism-based; parameters: dose 75 mg/kg, route oral; conditions: read-out: amount in urine
[50] = Oral clearance in human at 250 mg/kg measured on day 1; type: ADME, organism-based; parameters: dose 250 mg/kg; conditions: in vivo
Homo sapiens [51] = test: Toxicity in human assessed as occurrence of diarrhea at 500 […], po administered as single dose; type: organism-based; parameters: route oral; conditions: in vivo
[52] = AUC (0 to last) in human at 250 mg/kg, po measured on day 10; type: ADME, organism-based; parameters: time 0 - last, dose 250 mg/kg, route oral; conditions: plasma
Homo sapiens [53] = test: Toxicity in human assessed as occurrence of abdominal pain at 1000 […], po administered as single dose; type: organism-based, Abdomen; parameters: route oral; conditions: in vivo
[54] = Renal clearance in human at 1000 […], po measured on day 1; type: ADME, organism-based, Kidney; parameters: route oral; conditions: in vivo, read-out: CL_renal (converted)
[55] = Renal clearance in human at 500 […], po measured on day 16; type: ADME, organism-based, Kidney; parameters: route oral; conditions: in vivo, read-out: CL_renal (converted)
[56] = Tmax in human at 750 […], po measured on day 10; type: ADME, organism-based; parameters: dose 750 mg/kg, route oral; conditions: in vivo
Homo sapiens [57] = test: Toxicity in human assessed as occurrence of somnolence at 1000 […], po administered as single dose; type: organism-based; parameters: route oral; conditions: in vivo

## COc1c(N2C[C@@H](C)C[C@H](N)C2)ccc2c(=O)c(C(=O)O)cn(C3CC3)c12 [NEMONOXACIN]
[1]
  half-life: 19.4 h
[2]
  dose excreted at 24 h: 42.2%
[3]
  AUC(0-t): 3780 ng·h/mL
Homo sapiens [4]
  Activity: 0%
Homo sapiens [5]
  Activity: 0%
Homo sapiens [6]
  Activity: 0%
[7]
  dose excreted at 24 h: 30.5%
[8]
  AUC(0-t) at 24 h: 13700 ng·h/mL
[9]
  Cmax: 5750 ng/mL
[10]
  CL renal: 168 mL/min
[11]
  Cmax: 8200 ng/mL
Homo sapiens [12]
  Activity: 0%
[13]
  CL/F: 252 mL/min
[14]
  AUC(0-t) at 24 h: 59600 ng·h/mL
[15]
  CL/F: 224 mL/min
[16]
  CL/F: 223 mL/min
[17]
  AUC(0-t): 69300 ng·h/mL
Homo sapiens [18]
  Activity: 0%
[19]
  CL/F: 262 mL/min
[20]
  AUC at 24 h: 4270 ng·h/mL
Homo sapiens [21]
  Activity: 0%
[22]
  CL renal: 131 mL/min
[23]
  CL/F: 303 mL/min
[24]
  Tmax: 1.25 h
[25]
  half-life: 19.7 h
Homo sapiens [26]
  Activity: 0%
[27]
  Cmax: 6820 ng/mL
[28]
  Cmax: 2000 ng/mL
[29]
  Cmax: 502 ng/mL
[30]
  Tmax: 1.5 h
[31]
  dose excreted at 24 h: 57.8%
Homo sapiens [32]
  Activity: 0%
Homo sapiens [33]
  Activity: 0%
[34]
  AUC at 24 h: 22700 ng·h/mL
[35]
  Tmax: 2.07 h
[36]
  CL renal: 93.8 mL/min
[37]
  AUC(0-t): 46000 ng·h/mL
[38]
  AUC at 24 h: 58400 ng·h/mL
[39]
  Cmax: 2750 ng/mL
Homo sapiens [40]
  Activity: 0%
Homo sapiens [41]
  Activity: 0%
[42]
  CL renal: 115 mL/min
Homo sapiens [43]
  Activity: 0%
[44]
  dose excreted at 24 h: 48.6%
[45]
  half-life: 17.6 h
[46]
  dose excreted at 24 h: 56.7%
[47]
  AUC(0-t): 46700 ng·h/mL
[48]
  AUC(0-t): 31600 ng·h/mL
[49]
  dose excreted at 24 h: 56.4%
[50]
  CL/F: 279 mL/min
Homo sapiens [51]
  Activity: 0%
[52]
  AUC(0-t): 18700 ng·h/mL
Homo sapiens [53]
  Activity: 0%
[54]
  CL renal: 125 mL/min
[55]
  CL renal: 113 mL/min
[56]
  Tmax: 1.51 h
Homo sapiens [57]
  Activity: 0%
